Holding throughout (format): in vivo
One assay has as its system Meloidogyne incognita. Briefly: Meloidogyne incognita test (sand, lettuce, gall formation). The settings on record: Meloidogyne incognita, 336 h, 20 ppm, after 14 days; read-out: nematicidal efficacy (formation of galls). An outline of the steps: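 Vessels held sand, diluted compound solution, M. incognita egg/larvae suspension and lettuce seeds, and the plants grew for 14 days. Efficacy in % came from root gall formation: 100% means no galls, 0% means galls equal to the untreated control.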

The test system of assay [1] is Myzus persicae. The assay is described as follows: Myzus persicae spray test (Chinese cabbage leaf discs). Particulars: foliar, 144 h, after 6 days, read-out: efficacy. Here is the method: Myzus persicae—Spray Test [table] To produce a suitable active compound preparation, 1 part by weight of active compound is dissolved with the specified parts by weight of solvent and made up to the desired concentration with water containing an emulsifier concentration of 1000 ppm. To produce further test concentrations, the formulation is diluted with emulsifier-containing water. Discs of Chinese cabbage leaves (Brassica pekinensis) infested by all stages of the green peach aphid (Myzus persicae) are sprayed with an active compound preparation of the desired concentration. After 6 days, the efficacy in % is determined. 100% means that all the aphids have been killed; 0% means that no aphids have been killed.

Assay [2] deals with Myzus persicae. The assay is described as follows: Myzus persicae oral test. The settings on record: 120 h, after 5 days, read-out: efficacy. As for the experimental part: Myzus persicae—Oral Test [table] To produce a suitable active compound preparation, 1 part by weight of active compound is dissolved with the stated parts by weight of solvent and made up to the desired concentration with water. 50 μl of the active compound preparation are transferred into microtitre plates and made up to a final volume of 200 μl with 150 μl of IPL41 insect medium (33%+15% sugar). Subsequently, the plates are sealed with parafilm, which a mixed population of green peach aphids (Myzus persicae) within a second microtitre plate is able to puncture and imbibe the solution through it. After 5 days, the efficacy in % is determined. 100% means that all the aphids have been killed; 0% means that no aphids have been killed.

For the molecule `CC(C)S(=O)(=O)NC(=O)c1cn(C)c(Cc2cccc(Cl)c2)n1` [I-120], the pest or weed control at 20 ppm in the assay with Meloidogyne incognita worked out at 100%. The pest or weed control at 500 g/ha in the assay with Myzus persicae [1] was 90%.

With `O=C(NS(=O)(=O)c1ccccc1)c1cn(-c2ccccc2OC(F)(F)F)cn1` [I-214], the pest or weed control at 20 ppm in the assay with Meloidogyne incognita is 90%. Further, the pest or weed control at 500 g/ha in the assay with Myzus persicae [1] is 70%.

As for `Cc1ccc(S(=O)(=O)NC(=O)c2cn(-c3ccccc3)c(C)n2)cc1` [I-254], the pest or weed control at 20 ppm with Meloidogyne incognita was 100%. Moreover, the pest or weed control at 100 ppm with Myzus persicae [2] stood at 100%. Besides, the pest or weed control at 500 g/ha with Myzus persicae [1] stood at 90%.

In the case of `Cc1nc(C(=O)NS(=O)(=O)C(C)C)cn1-c1ccccc1Cl` [I-006], the pest or weed control at 20 ppm in the assay with Meloidogyne incognita amounted to 100%. Also, the pest or weed control at 500 g/ha in the assay with Myzus persicae [1] was 90%.

`Cc1cc(-n2cnc(C(=O)NS(=O)(=O)c3c(Cl)cccc3Cl)c2)cc(C(F)(F)F)c1` [I-291]: the pest or weed control at 20 ppm in the assay with Meloidogyne incognita and with Myzus persicae [2] was 90% throughout.

For `COc1ccc(Cl)c(S(=O)(=O)NC(=O)c2cn(-c3cc(Cl)cc(C(F)(F)F)c3)c(C(C)C)n2)c1` [I-401], the pest or weed control at 20 ppm in the assay with Meloidogyne incognita worked out at 70%. Besides, the pest or weed control at 500 g/ha in the assay on Myzus persicae [1] came out at 90%.

For the molecule `Cc1nc(C(=O)NS(=O)(=O)c2ccccc2Cl)cn1-c1c(F)cccc1F` [I-004], the pest or weed control at 20 ppm with Meloidogyne incognita was 90%; in the assay on Myzus persicae [2], 70%.

On to `Cn1cc(C(=O)NS(=O)(=O)c2ccccc2Cl)nc1Cc1ccccc1Cl` [I-116], for which the pest or weed control at 20 ppm in the assay with Meloidogyne incognita and with Myzus persicae [2] was 90% throughout. In the assay with Myzus persicae [1], the pest or weed control at 500 g/ha worked out at 70%.

Consider `COc1ccc(Cl)c(S(=O)(=O)NC(=O)c2cn(-c3ccccc3Cl)c(C)n2)c1` [I-266], for which the pest or weed control at 20 ppm stood at 100% with Meloidogyne incognita and 90% in the assay on Myzus persicae [2].

Consider `Cc1nc(C(=O)NS(=O)(=O)c2c(F)cccc2NC(C)C)cn1-c1cc(F)cc(F)c1` [I-385], for which the pest or weed control at 20 ppm with Meloidogyne incognita was found to be 100%. Further, the pest or weed control at 500 g/ha with Myzus persicae [1] was found to be 70%.

`CCCn1cnc(C(=O)NS(=O)(=O)c2ccc(Cl)cc2)c1Cl` [I-042]: the pest or weed control at 20 ppm in the assay on Meloidogyne incognita is 100%. The pest or weed control at 500 g/ha in the assay on Myzus persicae [1] came out at 70%.

For `Cc1nc(C(=O)NS(=O)(=O)c2ccccc2Cl)cn1-c1cccc(Cl)c1Cl` [I-264], in the assay with Meloidogyne incognita, the pest or weed control at 20 ppm is 90%. The pest or weed control at 100 ppm in the assay on Myzus persicae [2] turned out to be 100%. Also, the pest or weed control at 500 g/ha in the assay with Myzus persicae [1] stood at 70%.

Consider `COc1ccc(Cl)c(S(=O)(=O)NC(=O)c2nc(C)n(-c3cc(Cl)cc(Cl)c3)c2Cl)c1` [I-106], for which the pest or weed control at 20 ppm in the assay on Meloidogyne incognita stood at 100%. In the assay on Myzus persicae [2] (4 ppm), the pest or weed control at 4 ppm was found to be 100%.

With `COc1ccc(Cl)c(S(=O)(=O)NC(=O)c2cn(-c3cc(F)cc(C(F)(F)F)c3)cn2)c1` [I-250], in the assay with Meloidogyne incognita, the pest or weed control at 20 ppm came to 100%. The pest or weed control at 100 ppm in the assay with Myzus persicae [2] is 100%.

As to `N#Cc1c(C(=O)NS(=O)(=O)c2ccccc2Cl)ncn1CCC(F)(F)F` [I-007], the pest or weed control at 20 ppm in the assay with Meloidogyne incognita and in the assay on Myzus persicae [2] was 70% throughout.

With `Cc1nc(C(=O)NS(=O)(=O)c2c(Cl)cccc2Cl)cn1-c1ccccc1` [I-253], the pest or weed control at 20 ppm in the assay on Meloidogyne incognita is 100%. For the same molecule, the pest or weed control at 100 ppm in the assay with Myzus persicae [2] is 100%. The pest or weed control at 500 g/ha in the assay on Myzus persicae [1] was 90%.

`O=C(NS(=O)(=O)c1cc(Cn2cccn2)ccc1Cl)c1cn(-c2cc(Cl)cc(C(F)(F)F)c2)cn1` [I-346]: in the assay with Meloidogyne incognita, the pest or weed control at 20 ppm turned out to be 70%. Further, the pest or weed control at 500 g/ha in the assay on Myzus persicae [1] came to 70%.

Turning to `COc1ccc(S(=O)(=O)NC(=O)c2ncn(CCC(F)(F)F)c2Br)cc1` [I-010], the pest or weed control at 20 ppm in the assay on Meloidogyne incognita was determined as 90%. In the assay with Myzus persicae [1] (100 g/ha), the pest or weed control at 100 g/ha amounted to 90%. Also, the pest or weed control at 500 g/ha with Myzus persicae [1] amounted to 70%.

Take `O=C(NS(=O)(=O)c1c(Cl)cccc1Cl)c1cn(-c2ccccc2F)cn1` [I-220]: the pest or weed control at 20 ppm in the assay with Meloidogyne incognita amounted to 100%. Further, the pest or weed control at 500 g/ha in the assay on Myzus persicae [1] turned out to be 70%.

`COc1ccc(Cl)c(S(=O)(=O)NC(=O)c2cn(-c3cc(Cl)c(Br)c(Cl)c3)cn2)c1` [I-314]: the pest or weed control at 20 ppm in the assay on Meloidogyne incognita was found to be 90%. In addition, the pest or weed control at 500 g/ha in the assay with Myzus persicae [1] stood at 70%.

As for `O=C(NS(=O)(=O)c1ccc(Cl)cc1)c1cn(Cc2ccccc2Cl)cn1` [I-158], the pest or weed control at 20 ppm in the assay with Meloidogyne incognita came out at 100%. In the assay with Myzus persicae [1], the pest or weed control at 500 g/ha amounted to 90%.

Regarding `Cc1nc(C(=O)NS(=O)(=O)c2ccccc2Cl)cn1Cc1cccc(Cl)c1` [I-168], the pest or weed control at 20 ppm with Meloidogyne incognita came to 100%.

`O=C(NS(=O)(=O)c1ccccc1Cl)c1ncn(-c2ccc(Cl)cc2)c1Cl` [I-416]: the pest or weed control at 20 ppm with Meloidogyne incognita came to 100%.

Turning to `O=C(NS(=O)(=O)c1c(Cl)cccc1Cl)c1cn(-c2cc(Cl)cc(C(F)(F)F)c2)cn1` [I-286], the pest or weed control at 20 ppm with Meloidogyne incognita was 100%; in the assay with Myzus persicae [2], 90%.

Take `O=C(NS(=O)(=O)c1cccc(Cl)c1)c1cn(Cc2ccc(Cl)cc2)cn1` [I-164]: the pest or weed control at 20 ppm in the assay on Meloidogyne incognita is 90%.

Turning to `O=C(NS(=O)(=O)c1ccccc1Cl)c1cn(-c2cc(F)cc(Cl)c2)cn1` [I-240], the pest or weed control at 20 ppm in the assay with Meloidogyne incognita is 100%.

On to `COc1cccc(S(=O)(=O)NC(=O)c2ncn(C3CCCC3C(F)(F)F)c2Cl)c1` (centres unmarked) [I-067], for which the pest or weed control at 20 ppm with Meloidogyne incognita turned out to be 70%.

For the molecule `CC(C)Oc1ccc(Cl)c(S(=O)(=O)NC(=O)c2nc(Cl)n(C3CC3C(F)(F)F)c2Cl)c1` (centres unmarked) [I-460], the pest or weed control at 20 ppm came to 100% in the assay on Meloidogyne incognita and 70% in the assay on Myzus persicae [2].

For `COc1ccccc1S(=O)(=O)NC(=O)c1ncn(CCC(C)C)c1Cl` [I-048], the pest or weed control at 20 ppm in the assay with Meloidogyne incognita turned out to be 90%.

As to `O=C(NS(=O)(=O)c1ccc(Cl)cc1Cl)c1cn(CC(F)(F)F)cn1` [I-014], in the assay with Meloidogyne incognita, the pest or weed control at 20 ppm is 90%.

Regarding `Cc1ccccc1S(=O)(=O)NC(=O)c1cn(C)c(C(F)(F)F)n1` [I-474], the pest or weed control at 20 ppm with Meloidogyne incognita was determined as 100%.

`O=C(NS(=O)(=O)c1ccccc1)c1ncn(-c2ccc(C(F)(F)F)cc2)c1Cl` [I-421]: the pest or weed control at 20 ppm in the assay with Meloidogyne incognita amounted to 100%.

In the case of `Cc1nc(C(=O)NS(=O)(=O)c2c(Cl)cccc2Cl)cn1-c1ccccc1Cl` [I-265], in the assay with Meloidogyne incognita, the pest or weed control at 20 ppm was 90%.

Regarding `O=C(NS(=O)(=O)c1ccc(Cl)cc1)c1ncn(C2CCCC2C(F)(F)F)c1Cl` (centres unmarked) [I-066], the pest or weed control at 20 ppm in the assay on Meloidogyne incognita stood at 90%.

For the molecule `Cc1noc(C)c1S(=O)(=O)NC(=O)c1ncn(CCC(F)(F)F)c1Cl` [I-095], the pest or weed control at 20 ppm with Meloidogyne incognita is 90%.

On to `COc1ccc(Br)c(S(=O)(=O)NC(=O)c2cn(-c3cc(Cl)cc(C(F)(F)F)c3)cn2)c1` [I-336], for which the pest or weed control at 20 ppm in the assay with Meloidogyne incognita worked out at 100%.

Take `COc1cccc(S(=O)(=O)NC(=O)c2ncn(CC(F)(F)C(F)(F)F)c2Cl)c1` [I-082]: the pest or weed control at 20 ppm in the assay with Meloidogyne incognita came to 100%.

Take `O=C(NS(=O)(=O)c1ccccc1Cl)c1cn(-c2cc(F)c(Br)c(F)c2)cn1` [I-308]: the pest or weed control at 20 ppm with Meloidogyne incognita amounted to 90%.

Take `CC(C)Oc1ccc(S(=O)(=O)NC(=O)c2ncn(CCC(F)(F)F)c2Cl)cc1` [I-034]: in the assay on Meloidogyne incognita, the pest or weed control at 20 ppm is 90%.

On to `COc1ccc(Cl)c(S(=O)(=O)NC(=O)c2ncn(-c3ccc(Cl)cc3Cl)c2C(C)C)c1` [I-484], for which, in the assay with Meloidogyne incognita, the pest or weed control at 20 ppm was determined as 70%.

Turning to `O=C(NS(=O)(=O)c1c(F)cccc1F)c1cn(-c2cc(F)cc(C(F)(F)F)c2)cn1` [I-249], the pest or weed control at 20 ppm in the assay on Meloidogyne incognita stood at 100%.

As to `Cc1nc(C(=O)NS(=O)(=O)c2c(Cl)cccc2Cl)cn1-c1c(F)cccc1F` [I-362], the pest or weed control at 20 ppm in the assay with Meloidogyne incognita came out at 90%.

For the molecule `O=C(NS(=O)(=O)c1cccc(Cl)c1)c1ncn(-c2ccc(Cl)cc2)c1Cl` [I-417], the pest or weed control at 20 ppm in the assay with Meloidogyne incognita worked out at 100%.

The record behind these values is patent publication US10820591B2, “Substituted sulfonyl amides for controlling animal pests” (Bayer Aktiengesellschaft, priority 2016, dated 2020).
